Experimental data: PubChem BioAssay (NCI)
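Method: 48-hour compound exposure of cells in 96-well plates, five concentrations, linear interpolation of endpoints. GI50 = concentration required for 50% inhibition of growth. The concentration for full growth arrest is given as TGI.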

Legend:
Experiment in all cases: NCI anticancer screen, dose series, 48 h
M14 melanoma = tested on: M14 melanoma
ACHN renal = tested on: ACHN renal
RPMI-8226 leukemia = tested on: RPMI-8226 leukemia
SK-MEL-28 melanoma = tested on: SK-MEL-28 melanoma
NCI/ADR-RES ovarian = tested on: NCI/ADR-RES ovarian
OVCAR-3 ovarian = tested on: OVCAR-3 ovarian
SF-295 CNS = tested on: SF-295 CNS
MDA-MB-435 = tested on: MDA-MB-435
NCI-H23 lung = tested on: NCI-H23 lung
COLO 205 colon = tested on: COLO 205 colon
DU-145 prostate = tested on: DU-145 prostate
HCT-116 colon = tested on: HCT-116 colon
HT29 colon = tested on: HT29 colon
RXF 393 renal = tested on: RXF 393 renal
LOX IMVI melanoma = tested on: LOX IMVI melanoma
CAKI-1 renal = tested on: CAKI-1 renal
HS 578T breast = tested on: HS 578T breast
BT-549 breast = tested on: BT-549 breast
NCI-H226 lung = tested on: NCI-H226 lung
A498 renal = tested on: A498 renal
HOP-62 NSCLC = tested on: HOP-62 NSCLC
SK-OV-3 ovarian = tested on: SK-OV-3 ovarian
PC-3 prostate = tested on: PC-3 prostate
UACC-257 melanoma = tested on: UACC-257 melanoma
MOLT-4 leukemia = tested on: MOLT-4 leukemia
SF-539 CNS = tested on: SF-539 CNS
HCT-15 colon = tested on: HCT-15 colon
SN12C renal = tested on: SN12C renal
A549 NSCLC = tested on: A549 NSCLC
SK-MEL-2 melanoma = tested on: SK-MEL-2 melanoma
OVCAR-4 ovarian = tested on: OVCAR-4 ovarian
HCC-2998 colon = tested on: HCC-2998 colon
KM12 colon = tested on: KM12 colon
UO-31 renal = tested on: UO-31 renal
OVCAR-5 ovarian = tested on: OVCAR-5 ovarian
HL-60(TB) leukemia = tested on: HL-60(TB) leukemia
786-0 renal = tested on: 786-0 renal
HOP-92 NSCLC = tested on: HOP-92 NSCLC
SK-MEL-5 melanoma = tested on: SK-MEL-5 melanoma
MALME-3M melanoma = tested on: MALME-3M melanoma
OVCAR-8 ovarian = tested on: OVCAR-8 ovarian
EKVX NSCLC = tested on: EKVX NSCLC
SW-620 colon = tested on: SW-620 colon
NCI-H460 lung = tested on: NCI-H460 lung
K-562 leukemia = tested on: K-562 leukemia
SF-268 CNS = tested on: SF-268 CNS
SNB-19 CNS = tested on: SNB-19 CNS
MDA-MB-231 breast = tested on: MDA-MB-231 breast
U251 CNS = tested on: U251 CNS
UACC-62 melanoma = tested on: UACC-62 melanoma
IGROV1 ovarian = tested on: IGROV1 ovarian
TK-10 renal = tested on: TK-10 renal

CCC[CH2][Sn-]([CH2]CCC)([CH2]CCC)[O]C(=O)C(C)C
GI50 (M14 melanoma): 109 nM
TGI (M14 melanoma): 230 nM
GI50 (ACHN renal): 142 nM
TGI (ACHN renal): 273 nM
GI50 (RPMI-8226 leukemia): 109 nM
TGI (RPMI-8226 leukemia): 366 nM
GI50 (SK-MEL-28 melanoma): 182 nM
TGI (SK-MEL-28 melanoma): 329 nM
GI50 (NCI/ADR-RES ovarian): 154 nM
TGI (NCI/ADR-RES ovarian): 460 nM
GI50 (OVCAR-3 ovarian): 114 nM
TGI (OVCAR-3 ovarian): 238 nM
GI50 (SF-295 CNS): 199 nM
TGI (SF-295 CNS): 365 nM
GI50 (MDA-MB-435): 153 nM
TGI (MDA-MB-435): 289 nM
GI50 (NCI-H23 lung): 115 nM
TGI (NCI-H23 lung): 310 nM
GI50 (COLO 205 colon): 130 nM
TGI (COLO 205 colon): 274 nM
GI50 (DU-145 prostate): 124 nM
TGI (DU-145 prostate): 252 nM
GI50 (HCT-116 colon): 55.3 nM
TGI (HCT-116 colon): 182 nM
GI50 (HT29 colon): 57.3 nM
TGI (HT29 colon): 208 nM
GI50 (RXF 393 renal): 107 nM
TGI (RXF 393 renal): 237 nM
GI50 (LOX IMVI melanoma): 81.6 nM
TGI (LOX IMVI melanoma): 215 nM
GI50 (CAKI-1 renal): 122 nM
TGI (CAKI-1 renal): 279 nM
GI50 (HS 578T breast): 354 nM
TGI (HS 578T breast): 1920 nM
GI50 (BT-549 breast): 135 nM
TGI (BT-549 breast): 312 nM
GI50 (NCI-H226 lung): 161 nM
TGI (NCI-H226 lung): 340 nM
GI50 (A498 renal): 153 nM
TGI (A498 renal): 286 nM
GI50 (HOP-62 NSCLC): 157 nM
TGI (HOP-62 NSCLC): 297 nM
GI50 (SK-OV-3 ovarian): 151 nM
TGI (SK-OV-3 ovarian): 293 nM
GI50 (PC-3 prostate): 107 nM
TGI (PC-3 prostate): 250 nM
GI50 (UACC-257 melanoma): 135 nM
TGI (UACC-257 melanoma): 265 nM
GI50 (MOLT-4 leukemia): 102 nM
TGI (MOLT-4 leukemia): 348 nM
GI50 (SF-539 CNS): 157 nM
TGI (SF-539 CNS): 296 nM
GI50 (HCT-15 colon): 117 nM
TGI (HCT-15 colon): 249 nM
GI50 (SN12C renal): 158 nM
TGI (SN12C renal): 318 nM
GI50 (A549 NSCLC): 130 nM
TGI (A549 NSCLC): 267 nM
GI50 (SK-MEL-2 melanoma): 189 nM
TGI (SK-MEL-2 melanoma): 411 nM
GI50 (OVCAR-4 ovarian): 53.8 nM
TGI (OVCAR-4 ovarian): 196 nM
GI50 (HCC-2998 colon): 164 nM
TGI (HCC-2998 colon): 329 nM
GI50 (KM12 colon): 34.7 nM
TGI (KM12 colon): 145 nM
GI50 (UO-31 renal): 158 nM
TGI (UO-31 renal): 312 nM
GI50 (OVCAR-5 ovarian): 107 nM
TGI (OVCAR-5 ovarian): 262 nM
GI50 (HL-60(TB) leukemia): 111 nM
TGI (HL-60(TB) leukemia): 304 nM
GI50 (786-0 renal): 109 nM
TGI (786-0 renal): 228 nM
GI50 (HOP-92 NSCLC): 37 nM
TGI (HOP-92 NSCLC): 162 nM
GI50 (SK-MEL-5 melanoma): 157 nM
TGI (SK-MEL-5 melanoma): 291 nM
GI50 (MALME-3M melanoma): 22.9 nM
TGI (MALME-3M melanoma): 204 nM
GI50 (OVCAR-8 ovarian): 129 nM
TGI (OVCAR-8 ovarian): 255 nM
GI50 (EKVX NSCLC): 154 nM
TGI (EKVX NSCLC): 362 nM
GI50 (SW-620 colon): 124 nM
TGI (SW-620 colon): 272 nM
GI50 (NCI-H460 lung): 57.1 nM
TGI (NCI-H460 lung): 197 nM
GI50 (K-562 leukemia): 146 nM
TGI (K-562 leukemia): 315 nM
GI50 (SF-268 CNS): 144 nM
TGI (SF-268 CNS): 333 nM
GI50 (SNB-19 CNS): 186 nM
TGI (SNB-19 CNS): 351 nM
GI50 (MDA-MB-231 breast): 103 nM
TGI (MDA-MB-231 breast): 227 nM
GI50 (U251 CNS): 144 nM
TGI (U251 CNS): 294 nM
GI50 (UACC-62 melanoma): 200 nM
TGI (UACC-62 melanoma): 424 nM
GI50 (IGROV1 ovarian): 166 nM
TGI (IGROV1 ovarian): 324 nM
GI50 (TK-10 renal): 141 nM
TGI (TK-10 renal): 272 nM
